The record followed here is PMC6838110 (Nature Communications, 2019).

The test system of one experiment is HBCx-17 TNBC PDX. Kind of experiment: PDX efficacy study. Format: in vivo, mice. Conditions: olaparib 100 mg kg−1 qd single agent. The protocol:
(§1) Immunocompromised SCID (C.B-17/IcrHan®Hsd-Prkdc^scid) or Hsd:Athymic Nude-Foxn1^nu female mice (Envigo) were used for tumour implantation. […] When dosed twice daily, the time between the morning and evening doses was 8 h. Targeted irradiation of 2 Gy was delivered over 2 min daily over the first 5 days of treatment. Liposomal doxorubicin (Doxoves) was diluted in physiological saline and intravenously dosed at 2.5 or 5 mg kg^−1 once per week. Olaparib was formulated in 10% DMSO/30% Kleptose and orally dosed at 100 mg kg^−1 once daily. […] Statistical significance was evaluated using a one-tailed t-test. All in vivo studies complied with all relevant ethical regulations for animal testing and research, followed AstraZeneca’s global bioethics policy and received ethical approval from the AstraZeneca ethical committee. HBCx-17 PDX study was carried out at XenTech, France in accordance with French regulatory legislation concerning the protection of laboratory animals. CTG-703, CTG-0828 and CTG-0149 PDX studies were carried out at Champions Oncology, Inc., USA in accordance to the guidelines of the Institutional Animal Care and Use Committee (IACUC) of Champions Oncology and the USA regulatory legislation. CDX and OV2022 PDX studies were conducted in the UK in accordance with UK Home Office legislation, the Animal Scientific Procedures Act 1986 and the Home Office project licences 70/8839, 70/8894 and P0EC1FFDF. […]
(§2) SCID mice were surgically implanted subcutaneously with tumour fragments from donor mice. Tumours were measured (length x width) by bilateral Vernier calliper measurements and tumour volume calculated using Mousetrap software. Mice were randomized into […]
treatment groups when mean tumour volume reached ~0.2 cm 3.

Experiment [1] concerns FaDu and A549 ATM KO cells. Briefly: Colony formation assay, olaparib, ATM KO versus WT isogenic pairs. The following applies: olaparib single agent. Format: cell-based, human. The protocol: (§3) Graphs represent percentage viable cells ± SD following 7 days' treatment relative to DMSO vehicle-treated controls from one representative experiment of at least three independent experiments. […] Mean pGI50 (-log [GI50]) ± SEM, geometric mean GI50, number of experimental repeats (n) and 95% confidence interval are described. C) Colony formation assay was performed on FaDu and A549 ATM KO and WT cells treated with increasing concentrations of olaparib. Graphs represent percentage surviving fraction of colonies ± SD following 10- 14 days' treatment relative to DMSO vehicle-treated control from one representative experiment of three independent experiments. […] Optimized image algorithms were used to evaluate phenotypic response s using nuclear staining with Hoechst (cell cycle, micronuclei, nuclear fragmentation ), as well as to quantify the response of DNA damage response markers (foci numbers and total signal […] SDS-PAGE and Western blotting of samples Protein lysates were generated by scraping cells in radioimmunoprecipitation assay […] and protease and phosphatase inhibitor tablets (Roche) following compound treatments at indicated time points. Protein concentration was determined using the BCA protein assay kit (ThermoFisher). Proteins were separated by SDS -PAGE on NuPAGE® 4-12% […] membranes using the iBlot ® dry blotting system (ThermoFisher). […]

The test system of the next experiment is FaDu ATM KO xenografts. Kind of experiment: Xenograft efficacy study with olaparib. In kind it is in vivo, mice. Conditions: continuous olaparib 100 mg kg−1 qd single agent. The protocol: Immunocompromised SCID (C.B-17/IcrHan®Hsd-Prkdc^scid) or Hsd:Athymic Nude-Foxn1^nu female mice (Envigo) were used for tumour implantation. […] When dosed twice daily, the time between the morning and evening doses was 8 h. Targeted irradiation of 2 Gy was delivered over 2 min daily over the first 5 days of treatment. Liposomal doxorubicin (Doxoves) was diluted in physiological saline and intravenously dosed at 2.5 or 5 mg kg^−1 once per week. Olaparib was formulated in 10% DMSO/30% Kleptose and orally dosed at 100 mg kg^−1 once daily. […] Statistical significance was evaluated using a one-tailed t-test. […]
Tumours were measured (length x width) by bilateral Vernier calliper measurements and tumour volume calculated using Mousetrap software. […]
HPMC/T. Tumour growth inhibition from start of treatment was assessed by co mparison of the mean change in tumour volume for the control and treated groups, using the Mousetrap application and represented as tumour growth inhibition (TGI). Statistical significance was evaluated using a one-tailed t-test. […]
was prepared using an appropriate dilution factor and compared against an 11-point standard calibration curve (1–10,000 nM) prepared in DMSO and spiked into bl ank plasma. […] Supernatant (50 µL) was then diluted in 300 µL water and analysed with ultra-performance liquid chromatography–tandem mass […]

The test system of a further experiment is FaDu ATM KO cells. Briefly: Clonogenic survival (colony formation assay). Format: cell-based. Conditions: Homo sapiens. As to the method: as §3
For a further experiment, the system named is CTG-0149 H&N PDX. Briefly: PDX efficacy study. The following applies: olaparib single agent. Format: in vivo, mice. The protocol:
as §1, §2
(§4) treatment groups when mean tumour volume reached ~0.2 cm 3. AZD7648 was formulated in 0.5% hydroxypropyl methylcellulose (HPMC)/0.1% Tween80 (HPMC/T) and orally dosed (4–100 mg/kg). When dosed twice daily (bid), the time between the morning and evening doses was 8 hours. Targeted irradiation of 2 Gy was delivered over 2 minutes daily over the first 5 days of treatment. Liposomal doxorubicin (Doxoves) was diluted in physiological saline and intravenously dosed at 2.5 or 5 mg/kg once per week. Olaparib was formulated in 10% DMSO/30% Kleptose and orally dosed at 100 mg/kg once daily.
(§5) HPMC/T. Tumour growth inhibition from start of treatment was assessed by co mparison of the mean change in tumour volume for the control and treated groups, using the Mousetrap application and represented as tumour growth inhibition (TGI). Statistical significance was evaluated using a one-tailed t-test. HBCx-17 PDX study was carried out at XenTech, France in accordance with French regulatory legislation concerning the protection of laboratory animals. CTG-703, CTG-0828 and CTG-0149 PDX studies were carried out at Champions Oncology, Inc., USA in accordance to the guidelines of the Institutional Animal Care and Use Committee (IACUC) of Champions Oncology and the USA regulatory legislation. CDX and OV2022 PDX studies were conducted in the UK in accordance with UK Home Office legislation, the Animal Scientific Procedures Act 1986, and AstraZeneca’s global bioethics policy. Experimental details are outlined in Home […]
(§6) Blood samples were taken via venipuncture of the tail vein. Whole blood was mixed 1: 5 with PBS and centrifuged at 1500g for 3 minutes at 4°C, and the plasma was extracted […]
(§7) was prepared using an appropriate dilution factor and compared against an 11-point standard calibration curve (1–10,000 nM) prepared in DMSO and spiked into bl ank plasma. Acetonitrile (100 µL) was added with the internal standard, followed by centrifugation at 3000 rpm for 10 minutes. Supernatant (50 µL) was then diluted in 300 µL water and analysed with ultra-performance liquid chromatography–tandem mass […]
(§8) Xenograft sample preparation
(§9) Animals were euthanized and tumour samples snap frozen in liquid nitrogen or fixed in formalin and paraffin embedded for subsequent analysis. Tumour pieces were lysed in […]

Another experiment concerns CTG-0828 NSCLC PDX. Kind of experiment: PDX efficacy study. In kind it is in vivo, mice. The following applies: olaparib single agent. As to the method: as §1, §2, §4, §5, §6, §7, §8, §9
The next experiment concerns CTG-703 ovarian PDX. Briefly: PDX efficacy study. Format: in vivo, mice. The following applies: olaparib single agent. As to the method: as §1, §2, §4, §5, §6, §7, §8, §9
A further experiment relates to OV2022 ovarian PDX. Kind of experiment: PDX efficacy study. In kind it is in vivo, mice. The following applies: olaparib single agent. The protocol:
as §1, §2, §4, §5, §6, §7, §8, §9

In the experiment with HBCx-17 TNBC PDX, `O=C(c1cc(Cc2n[nH]c(=O)c3ccccc23)ccc1F)N1CCN(C(=O)C2CC2)CC1` [olaparib] returned a tumour regression of 42%. Further, the “tumours regressed on day 70 (last day of dosing)” value in the experiment on HBCx-17 TNBC PDX is reported as “four tumours out of nine”; in the experiment with HBCx-17 TNBC PDX (listed as Olaparib), 4/9. Also, in experiment [1], the “greater sensitivity of ATM KO cells compared with isogenic WT cells” value is above 10 fold. In addition, the TGI in the experiment with FaDu ATM KO xenografts was found to be 50%; with CTG-703 ovarian PDX, 100%; in the experiment with OV2022 ovarian PDX it was 65%. For the same molecule, the IC50 in the experiment with FaDu ATM KO cells was around 100 nM. In addition, the “sensitivity of the model to olaparib” value in the experiment on CTG-0149 H&N PDX and with CTG-0828 NSCLC PDX was “insensitive” each time.

What is called IC50 is the concentration that gives 50% inhibition.
